pIC50: −log10 of the molar value. Read-outs that look alike come from different tables or passages of the source.
Key:
hCE1 = target: T1, hCE1 (Homo sapiens, UniProt P23141); assay: hCE1 inhibition assay, DME hydrolysis in human liver microsomes; type: biochemical; set-up: tissue Celsis (Shanghai, China); host or cells: human liver microsomes (HLM);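 also: carboxylesterase inhibition read out as probe hydrolysis, with DME serving as hCE1 substrate and DDAB as hCE2 substrate, in DMSO below 2% (V/V)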
T1 sequence (P23141 18-567): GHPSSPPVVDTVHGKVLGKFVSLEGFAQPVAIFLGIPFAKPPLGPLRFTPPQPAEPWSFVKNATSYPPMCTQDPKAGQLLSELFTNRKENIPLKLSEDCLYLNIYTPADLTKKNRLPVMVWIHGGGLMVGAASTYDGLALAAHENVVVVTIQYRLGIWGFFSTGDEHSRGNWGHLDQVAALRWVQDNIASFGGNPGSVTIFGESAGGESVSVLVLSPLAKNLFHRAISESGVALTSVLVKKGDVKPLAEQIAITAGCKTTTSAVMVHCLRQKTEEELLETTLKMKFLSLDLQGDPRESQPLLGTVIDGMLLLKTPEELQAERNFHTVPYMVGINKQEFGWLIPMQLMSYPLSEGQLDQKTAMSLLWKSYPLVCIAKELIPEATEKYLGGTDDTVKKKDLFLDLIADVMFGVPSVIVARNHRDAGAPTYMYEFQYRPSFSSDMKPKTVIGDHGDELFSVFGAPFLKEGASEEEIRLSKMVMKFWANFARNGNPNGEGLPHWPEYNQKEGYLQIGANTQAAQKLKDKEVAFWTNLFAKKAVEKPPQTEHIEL
Experimental: (§1) All fluorescence-based assays were performed on Synergy H^1 Hybrid Multi-Mode Microplate Reader (BioTek, USA).
(§2) The inhibitory effects toward CEs were assayed using DME and DDAB as the specific probe substrates for hCE1 and hCE2, respectively. […] Control incubations without BNPP were also performed. After incubation, ice-cold acetonitrile (equal volume of incubation mixture, 200 μL) was added to terminate the reaction. The mixture was then centrifuged at 20,000 g for 20 min at 4°C. All these compounds dissolved in DMSO, and the final concentration of DMSO was <2% (V/V). Aliquots of the supernatant were then taken for further microplate reader analyses. […] First, each of the potential esterase inhibitors was pre-incubated with HLM at 37°C for 10 min with shaking in microplate reader. Then DME was added to start the reaction. After incubation at 37°C for 10 min in a shaking bath, LDR (equal volume of incubation mixture, 50 μL) was added to terminate the reaction, and luminescence measurements were conducted as described above.

hCE2 = target: T2, hCE2 (Homo sapiens, UniProt O00748); assay: hCE2 inhibition assay, DDAB hydrolysis in human liver microsomes; type: biochemical
T2 construct: tissue Celsis (Shanghai, China); host or cells: human liver microsomes (HLM)
T2 sequence (O00748 27-559): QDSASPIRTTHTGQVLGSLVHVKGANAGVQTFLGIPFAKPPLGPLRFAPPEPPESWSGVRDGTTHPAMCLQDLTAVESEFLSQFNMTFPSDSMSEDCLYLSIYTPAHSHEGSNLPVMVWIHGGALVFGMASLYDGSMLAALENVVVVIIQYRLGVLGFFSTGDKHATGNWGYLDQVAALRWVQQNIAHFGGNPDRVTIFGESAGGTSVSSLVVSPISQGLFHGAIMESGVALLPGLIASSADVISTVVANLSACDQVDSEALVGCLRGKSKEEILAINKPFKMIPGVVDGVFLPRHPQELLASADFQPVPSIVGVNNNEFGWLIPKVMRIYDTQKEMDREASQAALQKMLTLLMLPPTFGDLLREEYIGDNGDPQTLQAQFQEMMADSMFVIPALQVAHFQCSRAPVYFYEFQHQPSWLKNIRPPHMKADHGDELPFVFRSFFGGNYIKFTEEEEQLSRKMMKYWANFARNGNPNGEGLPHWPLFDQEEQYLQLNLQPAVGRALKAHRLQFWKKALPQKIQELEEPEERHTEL
Experimental: as §1, §2

[1] = DME as probe substrate, HLM, averages of at least three experiments, read-out: IC50 (hCE1)
[2] = log of the experimental IC50 in μM, used for 3D-QSAR
[3] = DDAB as probe substrate, HLM, averages of at least three experiments, read-out: IC50 (hCE2)

| SMILES | pIC50 (hCE1; [1]) | Observed Log(IC50_hCE1) (hCE1; [2]) [μM] | pIC50 (hCE2; [3]) | also measured |
| --- | --- | --- | --- | --- |
| CC1(C)CC[C@]2(C(=O)O)CC[C@]3(C)C(=CC[C@@H]4[C@@]5(C)CC[C@H](O)C(C)(C)[C@@H]5CC[C@]43C)[C@@H]2C1 [Compound 1, oleanolic acid] | 6.55 | -0.5528 | – | – |
| C[C@H]1[C@H](C)CC[C@]2(C(=O)O)CC[C@]3(C)C(=CC[C@@H]4[C@@]5(C)CC[C@H](O)C(C)(C)[C@@H]5CC[C@]43C)[C@H]12 [Compound 2, ursolic acid] | 6.62 | -0.6198 | – | – |
| CC1=C(O)C(=O)C=C2C1=CC=C1[C@@]2(C)CC[C@@]2(C)[C@@H]3C[C@](C)(C(=O)O)CC[C@]3(C)CC[C@]12C [Compound 7, celastrol] | 5.35 | 0.6464 | – | – |
| CC(C)=CCCC(C)(O)C1CCC2(C)C1C(O)CC1C3(C)CCC(O)C(C)(C)C3CCC12C (stereo not drawn) [Compound 8] | < 3.30 | – | – | – |
| CC(C)=CCCC(C)(O)C1CCC2(C)C1C(O)CC1C3(C)CCC(O)C(C)(C)C3C(O)CC12C (stereo not drawn) [Compound 9] | < 3.30 | – | – | – |
| C=C(CCC(C(=O)O)C1C(O)CC2(C)C3=C(CCC12C)C1(C)CCC(OC(C)=O)C(C)(C)C1CC3)C(C)C (stereo not drawn) [Compound 10] | 4.66 | 1.337 | – | – |
| C=C(CCC(C(=O)O)C1C(O)CC2(C)C3=CCC4C(C)(CCC(OC(C)=O)C4(C)C)C3=CCC12C)C(C)C (stereo not drawn) [Compound 11] | 4.56 | 1.441 | < 4.00 | – |
| C=C(CCC(C(=O)O)C1C(O)CC2(C)C3=CCC4C(C)(C)C(=O)CCC4(C)C3=CCC12C)C(C)C (stereo not drawn) [Compound 12] | 4.23 | 1.7679 | < 4.00 | – |
| C[C@H](CC(=O)C[C@@H](C)[C@H]1C[C@H](O)[C@@]2(C)C3=C(C(=O)C[C@]12C)[C@@]1(C)CCC(=O)C(C)(C)[C@@H]1C[C@@H]3O)C(=O)O [Compound 13] | – | – | – | pIC50 (hCE2): < 4.00; pIC50 (hCE1): < 3.40 |
| C[C@H](CC(=O)C[C@@H](C)[C@H]1CC(=O)[C@@]2(C)C3=C(C(=O)C[C@]12C)[C@@]1(C)CC[C@H](O)C(C)(C)[C@@H]1C[C@@H]3O)C(=O)O [Compound 14] | < 3.40 | – | < 4.00 | – |
| CC1(C)CCC2(C(=O)O)CCC3(C)C(=CCC4C5(C)CCC(=O)C(C)(C)C5CCC43C)C2C1 (stereo not drawn) [Compound 15, 3-oxo-olean-12-en-28-oic acid] | 6.89 | – | 4.79 | Observed Log(IC50_hCE1) (hCE1): -0.8861 μM; Selectivity (hCE1): 123.07 |
| CC(=O)OC1CCC2(C)C(CCC3(C)C2CC=C2C4CC(C)(C)CCC4(C(=O)O)CCC23C)C1(C)C (stereo not drawn) [Compound 19, 3β-O-acetyl-olean-12-en-28-oic acid] | 6.72 | -0.7212 | 4.99 | – |
| CC1(C(=O)O)CCC2(C)CCC3(C)C(=CCC4C5(C)CCC(O)C(C)(C)C5CCC43C)C2C1 (stereo not drawn) [Compound 26] | – | 0.9513 | – | pIC50 (hCE1; IC50 (hCE1), DME as probe substrate, HLM, averages of at least three experiments): 5.05 |
| O=[N+]([O-])c1ccc(OP(=O)(O)Oc2ccc([N+](=O)[O-])cc2)cc1 [Compound 28, Bis-p-nitrophenyl phosphate, reference compound] | 7.51 | – | – | – |

The next lines start with results.

| pIC50 (hCE1; [1]) | Observed Log(IC50_hCE1) (hCE1; [2]) [μM] | pIC50 (hCE2; [3]) | SMILES | also measured |
| --- | --- | --- | --- | --- |
| 4.19 | 1.811 | < 4.00 | CC1(C)CCC2(C(=O)O)C(O)CC3(C)C(=CCC4C5(C)CC(O)C(O)C(C)(CO)C5CCC43C)C2C1 (stereo not drawn) [Compound 3, polygalacic acid] | – |
| 4.89 | 1.1126 | – | CC1(C)[C@@H](O)CC[C@]2(C)[C@H]3C(=O)C=C4[C@@H]5C[C@@](C)(C(=O)O)CC[C@]5(C)CC[C@@]4(C)[C@]3(C)CC[C@@H]12 [Compound 4, glycyrrhetic acid] | – |
| < 3.40 | – | – | C[C@H]1[C@H](C)CC[C@]2(C)CC[C@]3(C)C(=CC[C@@H]4[C@@]5(C)CC[C@@H](O)[C@](C)(C(=O)O)[C@@H]5CC[C@]43C)[C@H]12 [Compound 5, β-boswellic acid] | – |
| 3.91 | 2.092 | – | C[C@H]1[C@H](C)CC[C@]2(C)CC[C@]3(C)C(=CC(=O)[C@@H]4[C@@]5(C)CC[C@@H](O)[C@](C)(C(=O)O)[C@@H]5CC[C@]43C)[C@H]12 [Compound 6, 11-keto-β-boswellic acid] | – |
| 5.62 | 0.382 | 5.21 | CC1(C)CCC2(CO)CCC3(C)C(=CCC4C5(C)CCC(O)C(C)(C)C5CCC43C)C2C1 (stereo not drawn) [Compound 16, 3β-olean-12-ene-3,28-diol] | – |
| 5.21 | 0.7945 | 5.24 | COC(=O)C12CCC(C)(C)CC1C1=CCC3C4(C)CCC(O)C(C)(C)C4CCC3(C)C1(C)CC2 (stereo not drawn) [Compound 17, 3β-hydroxy-olean-12-en-28-oic acidmethyl ester] | – |
| 5.49 | 0.5065 | 5.39 | CC1(C)CCC2(C(N)=O)CCC3(C)C(=CCC4C5(C)CCC(O)C(C)(C)C5CCC43C)C2C1 (stereo not drawn) [Compound 18, 3β-hydroxy-olean-12-en-28-amide] | – |
| 7.77 | -1.77 | 4.25 | CC1(C)CCC2(C(=O)O)CCC3(C)C(=CCC4C5(C)CCC(OC(=O)CCC(=O)O)C(C)(C)C5CCC43C)C2C1 (stereo not drawn) [Compound 20, 3β-O-(β-carboxypropionyl)-olean-12-en-28-oic acid] | selectivity over hCE2 (hCE1; hCE1 versus hCE2, values of the text): 3296 fold |
| 7.43 | -1.4318 | 5.02 | CC1CCC2(C(=O)O)CCC3(C)C(=CCC4C5(C)CCC(=O)C(C)(C)C5CCC43C)C2C1C (stereo not drawn) [Compound 21, 3-oxo-urs-12-en-28-oic acid] | – |
| 5.74 | 0.2625 | 4.92 | COC(=O)C12CCC(C)C(C)C1C1=CCC3C4(C)CCC(O)C(C)(C)C4CCC3(C)C1(C)CC2 (stereo not drawn) [Compound 23, 3β-hydroxy-urs-12-en-28-oic acid methyl ester] | – |
| 6.05 | -0.04576 | < 4.00 | COC(=O)C12CCC(C)C(C)C1C1=CCC3C4(C)CCC(=O)C(C)(C)C4CCC3(C)C1(C)CC2 (stereo not drawn) [Compound 24, 3-oxo-urs-12-en-28-oic acid methyl ester] | – |
| 4.48 | 1.521 | 4.92 | COC(=O)C12CCC(C)C(C)C1C1=CC(=O)C3C4(C)CCC(=O)C(C)(C)C4CCC3(C)C1(C)CC2 (stereo not drawn) [Compound 25, 3,11-dioxo-urs-12-en-28-oic acid methyl ester] | – |
| 5.16 | 0.8414 | 5.50 | CC1(C(=O)O)CCC2(C)CCC3(C)C(=CCC4C5(C)CCC(OC(=O)CCC(=O)O)C(C)(C)C5CCC43C)C2C1 (stereo not drawn) [Compound 27, 3β-O-(β-carboxypropionyl)-olean-12-en-30-oic acid] | – |

Reference: paper PMC5491650, “Structure-Activity Relationships of Pentacyclic Triterpenoids as Potent and Selective Inhibitors against Human Carboxylesterase 1” (Frontiers in Pharmacology, 2017)
